Among the test systems are CAKI-1; HCT-15; HL-60; HOP-92; KM12; LOX IMVI; MCF7; NCI/ADR-RES; OVCAR-3; OVCAR-4; OVCAR-8; RPMI-8226; RXF 393; SK-MEL-2; SK-MEL-5; SK-OV-3; UACC-62; UO-31; SR.
Test in all cases: inhibition of tumour cell growth, NCI panel, 48 h

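Exposure lasted 48 hours, with cells grown in 96-well plates and compounds tested at five concentrations. GI50 = concentration required for 50% inhibition of growth.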 Calls of active or inactive are those of the source. No stated cut-off is given here; in the data, active = GI50 up to about 1.1 µM and inactive = higher.

The values that follow come from ChEMBL document CHEMBL1201862, “PubChem BioAssay data set” (2004).

On to `CCC1=CC2CN3CCc4c([nH]c5ccccc45)C(C(=O)OC)(C2)C13` (centres undefined), for which the GI50 in the assay on CAKI-1 was 20.8 µM (inactive); with HCT-15, 44.2 µM; in the assay on HL-60, 36.7 µM (inactive); with HOP-92, 12.4 µM (inactive); in the assay with KM12, 20 µM (inactive); with LOX IMVI, 61.8 µM (inactive). Moreover, the GI50 is 44.6 µM (inactive) in the assay with MCF7; 45.5 µM (inactive) in the assay on NCI/ADR-RES; 42.8 µM (inactive) in the assay on OVCAR-3; 37.2 µM (inactive) in the assay on OVCAR-4; 11 µM (inactive) in the assay on OVCAR-8; 18.5 µM (inactive) with RPMI-8226. Also, the GI50 in the assay with RXF 393 is 35.7 µM (inactive); with SK-MEL-2, 67.8 µM (inactive); in the assay with SK-MEL-5, 40.7 µM (inactive); with SK-OV-3 it was 69.3 µM (inactive); with UACC-62, 37.8 µM (inactive); in the assay on UO-31, 32.2 µM (inactive).
On to `O=C1C2=Cc3ccccc3OC2(O)Oc2ccc(O)cc21` (centres undefined), for which the GI50 is 48.4 µM (inactive) with CAKI-1; 38.6 µM in the assay with HCT-15; 46.8 µM (inactive) in the assay with HOP-92; > 100 µM (inactive) with KM12; > 100 µM (inactive) in the assay on LOX IMVI; > 100 µM (inactive) with MCF7. The GI50 is 49.9 µM (inactive) with NCI/ADR-RES; 36.7 µM (inactive) in the assay with OVCAR-3; 69.5 µM (inactive) in the assay on OVCAR-8; 23.1 µM (inactive) with RPMI-8226; > 100 µM (inactive) in the assay with RXF 393; > 100 µM (inactive) in the assay on SK-MEL-2. Besides, the GI50 in the assay on SK-MEL-5 was 44.1 µM (inactive); in the assay with SK-OV-3, > 100 µM (inactive); in the assay on UACC-62, 61.8 µM (inactive).
Regarding `NC(CCCNc1ccc(O)cc1)C(=O)O` (centres undefined), the GI50 in the assay on CAKI-1 is 48.2 µM (inactive); with HCT-15 it was 30.1 µM; in the assay on HL-60, 19.8 µM (inactive); with HOP-92 it was 26.5 µM (inactive); in the assay on KM12, 49.2 µM (inactive); in the assay with LOX IMVI it was 18.5 µM (inactive). The GI50 in the assay on OVCAR-3 is 18.1 µM (inactive); in the assay with OVCAR-4, 17.6 µM (inactive); with OVCAR-8 it was 33.7 µM (inactive); in the assay with RPMI-8226, 24.4 µM (inactive); with RXF 393, 26.1 µM (inactive); in the assay with SK-MEL-2 it was 31 µM (inactive). Besides, the GI50 was 25.8 µM (inactive) in the assay on SK-MEL-5; > 100 µM (inactive) in the assay with SK-OV-3; 25.3 µM (inactive) with SR; 18.5 µM (inactive) with UACC-62; > 60 µM (inactive) in the assay on UO-31.
For the compound `CN1Cc2ccccc2C2(COc3ccccc3C2=O)C1` (centres undefined), the GI50 was > 100 µM (inactive) with CAKI-1; greater than 100 µM with HCT-15; 48.9 µM (inactive) in the assay with HL-60; 20 µM (inactive) with HOP-92; > 100 µM (inactive) in the assay on LOX IMVI; 77.8 µM (inactive) with OVCAR-3. Besides, the GI50 in the assay on OVCAR-4 is 92.3 µM (inactive); in the assay on OVCAR-8, > 100 µM (inactive); in the assay with RPMI-8226, 68.7 µM (inactive); with RXF 393, > 100 µM (inactive); in the assay with SK-MEL-2, > 100 µM (inactive); in the assay on SK-MEL-5, 56.2 µM (inactive). In addition, the GI50 in the assay with SK-OV-3 was > 100 µM (inactive); with SR it was 31.8 µM (inactive); in the assay on UACC-62, > 100 µM (inactive); in the assay with UO-31 it was 57.4 µM (inactive).
`COc1cc(OC)c2c(O)cc(CC(C)O)cc2c1` (centres undefined): the GI50 with CAKI-1 was > 100 µM (inactive); with HCT-15, greater than 100 µM; in the assay on HL-60 it was 78.9 µM (inactive); in the assay on HOP-92, > 100 µM (inactive); in the assay with KM12, > 100 µM (inactive); in the assay on LOX IMVI, > 100 µM (inactive). The GI50 in the assay on OVCAR-3, in the assay with OVCAR-4, in the assay with OVCAR-8, in the assay with RPMI-8226, with RXF 393 and with SK-MEL-2 was > 100 µM (inactive) in each case. Further, the GI50 in the assay on SK-MEL-5, with SK-OV-3, with SR, in the assay with UACC-62 and with UO-31 was > 100 µM (inactive) each time.
In the case of `COc1cccc2c1C(=O)c1c(O)c3c(c(O)c1C2=O)C[C@](O)(C(=O)CO)CC3OC1CC(N)C(OC2CCCCO2)C(C)O1` (some centres undefined), the GI50 in the assay on CAKI-1 was 0.0353 µM (active); in the assay with HCT-15, 0.47 µM; in the assay with HL-60, < 0.01 µM (active); in the assay on HOP-92 it was 0.239 µM (active); in the assay with KM12, 0.375 µM (active); in the assay on LOX IMVI, 0.232 µM (active). Also, the GI50 is 0.0311 µM (active) in the assay on MCF7; 0.828 µM (active) in the assay on OVCAR-3; 0.659 µM (active) in the assay with OVCAR-4; 0.267 µM (active) in the assay with OVCAR-8; 0.112 µM (active) in the assay with RPMI-8226; 0.43 µM (active) with RXF 393. For the same compound, the GI50 with SK-MEL-2 is 1.05 µM (active); in the assay on SK-MEL-5, 0.115 µM (active); in the assay with SK-OV-3, 0.531 µM (active); with UACC-62, 0.208 µM (active); in the assay on UO-31, 1.48 µM (inactive).
Consider `COc1cccc2c1C(=O)c1c(O)c3c(c(O)c1C2=O)C[C@@](O)(C(=O)CO)CC3OC1CC(NCCCC(OC(C)=O)OC(C)=O)C(O)C(C)O1` (some centres undefined), for which the GI50 in the assay with CAKI-1 is 0.00296 µM (active); in the assay with HCT-15 it was 0.00225 µM; in the assay with HL-60, 0.00212 µM (active); in the assay on HOP-92, 0.00277 µM (active); in the assay on KM12, 0.00279 µM (active); in the assay on LOX IMVI it was 0.000233 µM (active). Also, the GI50 is 0.0045 µM (active) in the assay on OVCAR-3; 0.00151 µM (active) with OVCAR-4; 0.00196 µM (active) in the assay on OVCAR-8; 0.00322 µM (active) in the assay on RPMI-8226; 0.00172 µM (active) with RXF 393; 0.00192 µM (active) with SK-MEL-2. In addition, the GI50 in the assay with SK-OV-3 is 0.00501 µM (active); with SR it was < 0.0001 µM (active); with UACC-62, 0.000861 µM (active); in the assay on UO-31, 0.00151 µM (active).
Regarding `COc1ccc(C(c2ccccc2)(c2ccc(OC)cc2)N2C(=O)NC3C(CCCCC(=O)NCCCCCCOP(OCCC#N)N(C(C)C)C(C)C)SCC32)cc1` (centres undefined), the GI50 was 18 µM with HCT-15; 12.1 µM (inactive) with HL-60; 19.5 µM (inactive) with HOP-92; 16.2 µM (inactive) in the assay with KM12; 11.8 µM (inactive) in the assay on LOX IMVI; 14.8 µM (inactive) in the assay with OVCAR-3. In addition, the GI50 with OVCAR-4 is 17.9 µM (inactive); in the assay on OVCAR-8 it was 29.2 µM (inactive); in the assay with RPMI-8226, 8.34 µM (inactive); with RXF 393 it was 11.7 µM (inactive); in the assay with SK-MEL-2, 11.6 µM (inactive); with SK-MEL-5 it was 15.3 µM (inactive). For the same compound, the GI50 with SK-OV-3 is > 10 µM (inactive); in the assay with SR it was 8.07 µM (inactive); with UACC-62, 10.9 µM (inactive); with UO-31, 14.3 µM (inactive).
As for `O=C1Nc2ccccc2/C1=N/Nc1nc(-c2ccccc2)cs1`, the GI50 in the assay on CAKI-1 is 18.3 µM (inactive); with HCT-15 it was 23.1 µM; in the assay on HL-60, 2.45 µM (inactive); in the assay on HOP-92, 35.7 µM (inactive); in the assay on KM12 it was 30.3 µM (inactive); with LOX IMVI, 44.6 µM (inactive). Also, the GI50 with MCF7 was 27.2 µM (inactive); in the assay on NCI/ADR-RES, 20.5 µM (inactive); with OVCAR-3, 26.4 µM (inactive); with OVCAR-4 it was 40.7 µM (inactive); in the assay with OVCAR-8, 40.1 µM (inactive); with SK-MEL-2, 84.1 µM (inactive). For the same compound, the GI50 is 25.8 µM (inactive) in the assay with SK-MEL-5, 59 µM (inactive) in the assay on SK-OV-3 and 24.7 µM (inactive) in the assay on UO-31.
As for `Cn1cc2ccccc2c1-c1nc(F)nc(Nc2ccc(N)cc2)n1`, the GI50 with CAKI-1 was 15 µM (inactive); with HCT-15, 4.97 µM; in the assay on HL-60 it was 22.3 µM (inactive); in the assay with HOP-92 it was 15.1 µM (inactive); in the assay with KM12, 14 µM (inactive); in the assay with LOX IMVI it was 12.4 µM (inactive). The GI50 in the assay with OVCAR-3 is 20.8 µM (inactive); with OVCAR-4 it was 23.1 µM (inactive); in the assay with OVCAR-8, 21 µM (inactive); in the assay on RPMI-8226, 13.3 µM (inactive); in the assay on RXF 393, 15.3 µM (inactive); in the assay with SK-MEL-2, 13.3 µM (inactive). Also, the GI50 with SK-MEL-5 is 11.5 µM (inactive); with SK-OV-3 it was 11.6 µM (inactive); in the assay on SR, 16.8 µM (inactive); in the assay with UO-31, 17.3 µM (inactive).
For the compound `Cc1cc(C#N)c(Nc2ccc(F)cc2[N+](=O)[O-])s1`, the GI50 in the assay with CAKI-1 was 84.9 µM (inactive); with HCT-15, greater than 100 µM; in the assay with HOP-92 it was 33.4 µM (inactive); with KM12, > 100 µM (inactive); with NCI/ADR-RES it was > 100 µM (inactive); in the assay with OVCAR-3, > 100 µM (inactive). For the same compound, the GI50 is > 100 µM (inactive) in the assay with OVCAR-4; > 100 µM (inactive) in the assay with OVCAR-8; > 100 µM (inactive) in the assay on RPMI-8226; 20.2 µM (inactive) with RXF 393; > 100 µM (inactive) in the assay on SK-OV-3; > 100 µM (inactive) in the assay on SR. For the same compound, the GI50 in the assay with UACC-62 and with UO-31 was > 100 µM (inactive) throughout.
Take `Fc1cccc(Cl)c1C1SCc2nc3ccccc3n21` (centres undefined): the GI50 in the assay with CAKI-1 was 27.1 µM (inactive); in the assay on HCT-15, 31.3 µM; with HL-60 it was 11 µM (inactive); in the assay with HOP-92, 6.62 µM (inactive); in the assay on KM12, 24.8 µM (inactive); in the assay with LOX IMVI, 17.3 µM (inactive). Moreover, the GI50 was 21.9 µM (inactive) with OVCAR-3; 31.6 µM (inactive) with OVCAR-4; 38.1 µM (inactive) with OVCAR-8; 17.1 µM (inactive) in the assay with RPMI-8226; 31.6 µM (inactive) in the assay on RXF 393; 21.1 µM (inactive) in the assay with SK-MEL-2. Also, the GI50 in the assay on SK-MEL-5 is 15.4 µM (inactive); with SK-OV-3, 22.9 µM (inactive); in the assay on SR, 17.3 µM (inactive); with UACC-62, 15.7 µM (inactive); with UO-31 it was 27.9 µM (inactive).
